Measurements published in US9546156B2, “N-bicyclic aryl,N'-pyrazolyl urea, thiourea, guanidine cyanoguanidine compounds as TrkA kinase inhibitors” (Array BioPharma Inc., priority 2012, dated 2017).

Columns and labels:
Test in all cases: Off-target kinase profiling (KinaseProfiler)
Type in all cases: biochemical
Conditions in all cases: 10 μM, ATP near Km
Syk = molecular target: T1, Syk (Homo sapiens, UniProt P43405)
T1 construct: purchased Millipore, Inc. (KinaseProfiler service)
Method in brief: (§1)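 Read-out: residual activity as percent of control, the average of two runs. Conditions: inhibitor at 10 μM; ATP concentration matched to near the Km of the individual kinase.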

MARK1 = molecular target: T2, MARK1 (Homo sapiens, UniProt Q9P0L2)
T2 construct: purchased Millipore, Inc. (KinaseProfiler service)
Method in brief: as §1

CK1gamma1 = molecular target: T3, CK1gamma1 (Homo sapiens, UniProt Q9HCP0)
T3 construct: purchased Millipore, Inc. (KinaseProfiler service)
T3 sequence (Q9HCP0 whole entry): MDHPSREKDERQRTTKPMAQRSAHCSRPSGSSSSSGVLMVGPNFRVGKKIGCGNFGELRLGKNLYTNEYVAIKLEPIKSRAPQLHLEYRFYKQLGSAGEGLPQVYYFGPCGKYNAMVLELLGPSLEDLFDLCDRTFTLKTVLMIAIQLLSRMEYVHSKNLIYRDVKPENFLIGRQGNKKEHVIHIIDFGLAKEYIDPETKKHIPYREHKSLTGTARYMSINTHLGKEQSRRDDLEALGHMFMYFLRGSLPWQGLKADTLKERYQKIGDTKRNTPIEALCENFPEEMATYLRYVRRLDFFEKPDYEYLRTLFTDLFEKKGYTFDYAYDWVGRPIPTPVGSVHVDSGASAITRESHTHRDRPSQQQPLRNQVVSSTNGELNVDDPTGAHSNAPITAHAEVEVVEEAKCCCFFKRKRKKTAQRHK
Method in brief: as §1

CDK7/cyclinH/MAT1 = molecular target: T4, CDK7/cyclinH/MAT1 (Homo sapiens, UniProt P50613)
T4 construct: purchased Millipore, Inc. (KinaseProfiler service)
Method in brief: as §1

GSK3beta = molecular target: T5, GSK3beta (Homo sapiens, UniProt P49841)
T5 construct: purchased Millipore, Inc. (KinaseProfiler service)
Method in brief: as §1

ErbB4 = molecular target: T6, ErbB4 (Homo sapiens, UniProt Q15303)
T6 construct: purchased Millipore, Inc. (KinaseProfiler service)
Method in brief: as §1

EphA1 = molecular target: T7, EphA1 (Homo sapiens, UniProt P21709)
T7 construct: purchased Millipore, Inc. (KinaseProfiler service)
Method in brief: as §1

EphA8 = molecular target: T8, EphA8 (Homo sapiens, UniProt P29322)
T8 construct: purchased Millipore, Inc. (KinaseProfiler service)
Method in brief: as §1

MRCKbeta = molecular target: T9, MRCKbeta (Homo sapiens, UniProt Q9Y5S2)
T9 construct: purchased Millipore, Inc. (KinaseProfiler service)
T9 sequence (Q9Y5S2 whole entry): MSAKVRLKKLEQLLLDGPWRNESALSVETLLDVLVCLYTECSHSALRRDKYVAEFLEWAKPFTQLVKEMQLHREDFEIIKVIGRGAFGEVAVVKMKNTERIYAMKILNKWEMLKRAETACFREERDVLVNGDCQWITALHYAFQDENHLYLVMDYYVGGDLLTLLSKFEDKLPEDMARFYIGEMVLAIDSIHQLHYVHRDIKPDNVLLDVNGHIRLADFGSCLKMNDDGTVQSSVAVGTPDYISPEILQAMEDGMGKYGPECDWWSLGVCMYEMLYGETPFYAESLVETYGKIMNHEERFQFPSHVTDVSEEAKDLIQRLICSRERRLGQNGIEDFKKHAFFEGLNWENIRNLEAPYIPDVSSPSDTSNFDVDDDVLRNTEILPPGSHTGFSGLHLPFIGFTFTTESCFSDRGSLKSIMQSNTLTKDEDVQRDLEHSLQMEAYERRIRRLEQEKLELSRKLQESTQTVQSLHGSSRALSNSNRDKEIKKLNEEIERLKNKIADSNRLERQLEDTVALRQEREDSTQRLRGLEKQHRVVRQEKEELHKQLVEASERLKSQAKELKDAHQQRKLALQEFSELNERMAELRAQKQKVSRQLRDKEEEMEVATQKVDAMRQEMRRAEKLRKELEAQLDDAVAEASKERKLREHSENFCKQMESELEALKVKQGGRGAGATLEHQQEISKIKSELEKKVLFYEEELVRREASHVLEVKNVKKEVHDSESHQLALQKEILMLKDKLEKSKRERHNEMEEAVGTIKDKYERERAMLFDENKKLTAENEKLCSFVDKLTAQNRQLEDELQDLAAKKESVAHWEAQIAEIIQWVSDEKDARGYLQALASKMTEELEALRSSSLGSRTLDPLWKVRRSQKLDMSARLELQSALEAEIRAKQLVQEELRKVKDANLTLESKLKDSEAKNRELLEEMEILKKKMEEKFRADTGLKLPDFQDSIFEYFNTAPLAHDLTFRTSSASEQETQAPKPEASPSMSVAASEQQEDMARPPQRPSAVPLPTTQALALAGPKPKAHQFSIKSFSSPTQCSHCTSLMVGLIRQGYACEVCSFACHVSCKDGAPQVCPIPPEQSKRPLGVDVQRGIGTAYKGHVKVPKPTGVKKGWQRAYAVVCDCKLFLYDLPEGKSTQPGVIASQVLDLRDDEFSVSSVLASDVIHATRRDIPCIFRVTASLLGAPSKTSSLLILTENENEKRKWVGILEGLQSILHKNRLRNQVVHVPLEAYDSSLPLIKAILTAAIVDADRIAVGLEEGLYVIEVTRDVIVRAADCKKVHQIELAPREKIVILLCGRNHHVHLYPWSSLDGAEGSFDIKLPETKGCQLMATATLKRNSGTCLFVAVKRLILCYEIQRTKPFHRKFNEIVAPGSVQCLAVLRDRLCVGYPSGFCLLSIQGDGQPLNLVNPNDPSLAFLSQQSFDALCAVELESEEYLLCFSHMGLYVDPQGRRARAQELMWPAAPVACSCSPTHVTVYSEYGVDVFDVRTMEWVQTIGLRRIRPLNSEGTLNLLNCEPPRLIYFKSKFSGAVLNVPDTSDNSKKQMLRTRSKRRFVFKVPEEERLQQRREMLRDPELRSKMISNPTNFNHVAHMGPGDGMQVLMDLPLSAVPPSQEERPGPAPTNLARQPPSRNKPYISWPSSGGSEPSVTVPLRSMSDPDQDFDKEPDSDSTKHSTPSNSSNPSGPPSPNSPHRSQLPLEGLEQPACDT
Method in brief: as §1

PTK5 = molecular target: T10, PTK5 (Homo sapiens, UniProt P42685)
T10 construct: purchased Millipore, Inc. (KinaseProfiler service)
Method in brief: as §1

TEC Activated = molecular target: T11, TEC Activated (Homo sapiens, UniProt P42680)
T11 construct: purchased Millipore, Inc. (KinaseProfiler service)
Method in brief: as §1

Fyn = molecular target: T12, Fyn (Homo sapiens, UniProt P06241)
T12 construct: purchased Millipore, Inc. (KinaseProfiler service)
Method in brief: as §1

HIPK2 = molecular target: T13, HIPK2 (Homo sapiens, UniProt Q9H2X6)
T13 construct: purchased Millipore, Inc. (KinaseProfiler service)
Method in brief: as §1

DCAMKL2 = molecular target: T14, DCAMKL2 (Homo sapiens, UniProt Q8N568)
T14 construct: purchased Millipore, Inc. (KinaseProfiler service)
T14 sequence (Q8N568 whole entry): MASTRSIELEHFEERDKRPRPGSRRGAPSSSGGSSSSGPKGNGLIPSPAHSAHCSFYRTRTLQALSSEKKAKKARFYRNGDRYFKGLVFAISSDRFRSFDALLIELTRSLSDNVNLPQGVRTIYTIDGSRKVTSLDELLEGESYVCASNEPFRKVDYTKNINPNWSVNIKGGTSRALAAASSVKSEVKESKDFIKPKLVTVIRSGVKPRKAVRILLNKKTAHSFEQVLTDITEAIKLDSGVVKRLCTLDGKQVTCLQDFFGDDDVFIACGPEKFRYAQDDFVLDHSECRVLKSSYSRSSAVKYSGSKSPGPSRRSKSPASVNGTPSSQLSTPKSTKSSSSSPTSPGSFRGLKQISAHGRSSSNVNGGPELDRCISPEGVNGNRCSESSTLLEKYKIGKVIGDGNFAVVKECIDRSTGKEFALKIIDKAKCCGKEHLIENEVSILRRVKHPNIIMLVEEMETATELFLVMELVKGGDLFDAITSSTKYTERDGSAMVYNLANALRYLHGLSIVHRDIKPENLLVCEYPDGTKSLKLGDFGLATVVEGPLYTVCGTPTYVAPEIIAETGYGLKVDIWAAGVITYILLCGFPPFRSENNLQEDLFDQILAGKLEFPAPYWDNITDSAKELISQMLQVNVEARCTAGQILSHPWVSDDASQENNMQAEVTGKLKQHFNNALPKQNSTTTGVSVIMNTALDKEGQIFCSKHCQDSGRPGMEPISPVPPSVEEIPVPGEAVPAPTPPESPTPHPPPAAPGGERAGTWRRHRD
Method in brief: as §1

PAK4 = molecular target: T15, PAK4 (Homo sapiens, UniProt O96013)
T15 construct: purchased Millipore, Inc. (KinaseProfiler service)
Method in brief: as §1

MYLK = molecular target: T16, MYLK (Homo sapiens, UniProt Q15746)
T16 construct: purchased Millipore, Inc. (KinaseProfiler service)
Method in brief: as §1

Rsk4 = molecular target: T17, Rsk4 (Homo sapiens, UniProt Q9UK32)
T17 construct: purchased Millipore, Inc. (KinaseProfiler service)
Method in brief: as §1

CAMK4 = molecular target: T18, CAMK4 (Homo sapiens, UniProt Q16566)
T18 construct: purchased Millipore, Inc. (KinaseProfiler service)
Method in brief: as §1

MSSK1 = molecular target: T19, MSSK1 (Homo sapiens, UniProt Q9UPE1)
T19 construct: purchased Millipore, Inc. (KinaseProfiler service)
Method in brief: as §1

LIMK1 = molecular target: T20, LIMK1 (Homo sapiens, UniProt P53667)
T20 construct: purchased Millipore, Inc. (KinaseProfiler service)
Method in brief: as §1

CAMK2d = molecular target: T21, CAMK2d (Homo sapiens, UniProt Q13557)
T21 construct: purchased Millipore, Inc. (KinaseProfiler service)
Method in brief: as §1

EphB4 = molecular target: T22, EphB4 (Homo sapiens, UniProt P54760)
T22 construct: purchased Millipore, Inc. (KinaseProfiler service)
Method in brief: as §1

PKCgamma = molecular target: T23, PKCgamma (Homo sapiens, UniProt P05129)
T23 construct: purchased Millipore, Inc. (KinaseProfiler service)
Method in brief: as §1

DAPK1 = molecular target: T24, DAPK1 (Homo sapiens, UniProt P53355)
T24 construct: purchased Millipore, Inc. (KinaseProfiler service)
Method in brief: as §1

EphA3 = molecular target: T25, EphA3 (Homo sapiens, UniProt P29320)
T25 construct: purchased Millipore, Inc. (KinaseProfiler service)
Method in brief: as §1

MAP4K2 = molecular target: T26, MAP4K2 (Homo sapiens, UniProt Q12851)
T26 construct: purchased Millipore, Inc. (KinaseProfiler service)
Method in brief: as §1

TAK1 = molecular target: T27, TAK1 (Homo sapiens, UniProt O43318)
T27 construct: purchased Millipore, Inc. (KinaseProfiler service)
Method in brief: as §1

PASK = molecular target: T28, PASK (Homo sapiens, UniProt Q96RG2)
T28 construct: purchased Millipore, Inc. (KinaseProfiler service)
Method in brief: as §1

mTOR = molecular target: T29, mTOR (Homo sapiens, UniProt P42345)
T29 construct: purchased Millipore, Inc. (KinaseProfiler service)
Method in brief: as §1

ERK1 = molecular target: T30, ERK1 (Homo sapiens, UniProt P27361)
T30 construct: purchased Millipore, Inc. (KinaseProfiler service)
T30 sequence (P27361 whole entry): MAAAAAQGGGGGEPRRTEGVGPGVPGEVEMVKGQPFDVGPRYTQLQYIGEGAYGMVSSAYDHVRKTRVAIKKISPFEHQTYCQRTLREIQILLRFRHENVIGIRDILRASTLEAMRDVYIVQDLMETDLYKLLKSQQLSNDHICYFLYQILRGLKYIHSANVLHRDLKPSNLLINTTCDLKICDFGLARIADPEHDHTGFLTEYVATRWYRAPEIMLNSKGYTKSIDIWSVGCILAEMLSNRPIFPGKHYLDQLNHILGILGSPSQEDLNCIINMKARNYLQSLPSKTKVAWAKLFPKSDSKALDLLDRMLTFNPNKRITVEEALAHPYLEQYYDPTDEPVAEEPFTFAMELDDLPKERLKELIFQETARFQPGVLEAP
Method in brief: as §1

CK1gamma2 = molecular target: T31, CK1gamma2 (Homo sapiens, UniProt P78368)
T31 construct: purchased Millipore, Inc. (KinaseProfiler service)
Method in brief: as §1

IRR = molecular target: T32, IRR (Homo sapiens, UniProt P14616)
T32 construct: purchased Millipore, Inc. (KinaseProfiler service)
Method in brief: as §1

EGFR = molecular target: T33, EGFR (Homo sapiens, UniProt P00533)
T33 construct: purchased Millipore, Inc. (KinaseProfiler service)
Method in brief: as §1

Ret = molecular target: T34, Ret (Homo sapiens, UniProt P07949)
T34 construct: purchased Millipore, Inc. (KinaseProfiler service)
Method in brief: as §1

JNK2alpha2 = molecular target: T35, JNK2alpha2 (Homo sapiens, UniProt P45984)
T35 construct: purchased Millipore, Inc. (KinaseProfiler service)
Method in brief: as §1

CDK5/p35 = molecular target: T36, CDK5/p35 (Homo sapiens, UniProt Q00535)
T36 construct: purchased Millipore, Inc. (KinaseProfiler service)
T36 sequence (Q00535 whole entry): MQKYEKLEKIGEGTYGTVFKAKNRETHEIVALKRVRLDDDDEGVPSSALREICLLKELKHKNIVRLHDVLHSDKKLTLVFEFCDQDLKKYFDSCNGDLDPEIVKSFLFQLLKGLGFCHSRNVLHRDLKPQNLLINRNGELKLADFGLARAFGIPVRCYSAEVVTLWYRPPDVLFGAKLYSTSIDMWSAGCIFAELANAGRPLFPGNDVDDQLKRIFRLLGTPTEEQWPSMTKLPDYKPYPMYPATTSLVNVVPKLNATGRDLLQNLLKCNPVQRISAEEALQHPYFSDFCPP
T36 sequence (Q15078 2-307 partner limits assumed): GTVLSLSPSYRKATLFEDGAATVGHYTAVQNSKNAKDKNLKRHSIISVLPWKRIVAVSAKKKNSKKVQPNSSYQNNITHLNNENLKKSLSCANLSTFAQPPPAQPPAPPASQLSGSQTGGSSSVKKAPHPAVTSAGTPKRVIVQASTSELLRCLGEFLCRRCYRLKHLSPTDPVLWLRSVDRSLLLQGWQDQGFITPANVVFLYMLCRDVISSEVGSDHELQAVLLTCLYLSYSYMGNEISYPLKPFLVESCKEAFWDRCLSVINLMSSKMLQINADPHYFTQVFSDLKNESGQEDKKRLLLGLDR
Method in brief: as §1

DMPK = molecular target: T37, DMPK (Homo sapiens, UniProt Q09013)
T37 construct: purchased Millipore, Inc. (KinaseProfiler service)
T37 sequence (Q09013 whole entry): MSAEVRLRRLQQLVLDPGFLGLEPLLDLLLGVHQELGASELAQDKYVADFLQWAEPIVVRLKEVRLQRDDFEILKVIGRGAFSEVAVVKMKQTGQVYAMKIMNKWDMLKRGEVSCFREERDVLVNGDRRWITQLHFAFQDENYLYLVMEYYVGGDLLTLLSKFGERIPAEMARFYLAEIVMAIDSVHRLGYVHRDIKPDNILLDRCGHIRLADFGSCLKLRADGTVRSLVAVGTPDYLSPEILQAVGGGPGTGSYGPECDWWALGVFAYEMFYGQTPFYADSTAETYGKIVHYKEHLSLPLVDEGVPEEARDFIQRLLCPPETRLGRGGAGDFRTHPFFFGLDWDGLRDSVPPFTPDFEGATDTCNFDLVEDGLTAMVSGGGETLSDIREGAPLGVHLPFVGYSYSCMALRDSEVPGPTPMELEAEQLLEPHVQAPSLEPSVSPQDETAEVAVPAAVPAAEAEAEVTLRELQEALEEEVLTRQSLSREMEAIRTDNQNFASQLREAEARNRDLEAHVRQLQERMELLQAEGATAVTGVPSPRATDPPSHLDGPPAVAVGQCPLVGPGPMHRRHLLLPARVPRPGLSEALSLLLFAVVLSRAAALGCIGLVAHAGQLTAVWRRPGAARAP
Method in brief: as §1

GRK7 = molecular target: T38, GRK7 (Homo sapiens, UniProt Q8WTQ7)
T38 construct: purchased Millipore, Inc. (KinaseProfiler service)
Method in brief: as §1

DYRK2 = molecular target: T39, DYRK2 (Homo sapiens, UniProt Q92630)
T39 construct: purchased Millipore, Inc. (KinaseProfiler service)
Method in brief: as §1

Lyn = molecular target: T40, Lyn (Homo sapiens, UniProt P07948)
T40 construct: purchased Millipore, Inc. (KinaseProfiler service)
T40 sequence (P07948 whole entry): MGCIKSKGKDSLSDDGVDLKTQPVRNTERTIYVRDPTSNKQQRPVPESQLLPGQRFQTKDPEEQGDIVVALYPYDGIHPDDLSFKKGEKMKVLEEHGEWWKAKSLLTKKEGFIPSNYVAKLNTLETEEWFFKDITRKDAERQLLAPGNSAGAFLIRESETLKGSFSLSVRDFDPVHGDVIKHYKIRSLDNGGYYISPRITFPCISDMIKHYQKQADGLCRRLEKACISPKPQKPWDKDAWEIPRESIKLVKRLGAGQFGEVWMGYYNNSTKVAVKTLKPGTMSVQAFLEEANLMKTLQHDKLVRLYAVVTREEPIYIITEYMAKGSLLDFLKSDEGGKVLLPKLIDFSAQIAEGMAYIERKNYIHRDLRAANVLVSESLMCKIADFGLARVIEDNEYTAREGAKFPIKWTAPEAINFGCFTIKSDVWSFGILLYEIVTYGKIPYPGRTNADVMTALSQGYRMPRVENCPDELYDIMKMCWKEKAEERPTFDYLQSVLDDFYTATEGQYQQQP
Method in brief: as §1

EphB1 = molecular target: T41, EphB1 (Homo sapiens, UniProt P54762)
T41 construct: purchased Millipore, Inc. (KinaseProfiler service)
Method in brief: as §1

## COCc1ccc2cccc(NC(=O)Nc3c(C)c(-c4cnn(C)c4)nn3-c3ccccc3)c2c1 [Example 16, 1-(1′,4-dimethyl-1-phenyl-1H,1′H-[3,4′-bipyrazol]-5-yl)-3-(7-(methoxymethyl)naphthalen-1-yl)urea]
Syk
  Avg POC: 117.5 POC
MARK1
  Avg POC: 94.5 POC
CK1gamma1
  Avg POC: 115.5 POC
CDK7/cyclinH/MAT1
  Avg POC: 121.5 POC
GSK3beta
  Avg POC: 212 POC
ErbB4
  Avg POC: 118 POC
EphA1
  Avg POC: 104.5 POC
EphA8
  Avg POC: 112.5 POC
MRCKbeta
  Avg POC: 119 POC
PTK5
  Avg POC: 118.5 POC
TEC Activated
  Avg POC: 121.5 POC
Fyn
  Avg POC: 112.5 POC
HIPK2
  Avg POC: 97 POC
DCAMKL2
  Avg POC: 175 POC
PAK4
  Avg POC: 112.5 POC
MYLK
  Avg POC: 109.5 POC
Rsk4
  Avg POC: 126.5 POC
CAMK4
  Avg POC: 127 POC
MSSK1
  Avg POC: 136.5 POC
LIMK1
  Avg POC: 105.5 POC
CAMK2d
  Avg POC: 106.5 POC
EphB4
  Avg POC: 145.5 POC
PKCgamma
  Avg POC: 100.5 POC
DAPK1
  Avg POC: 118 POC
EphA3
  Avg POC: 139.5 POC
MAP4K2
  Avg POC: 110.5 POC
TAK1
  Avg POC: 110.5 POC
PASK
  Avg POC: 164.5 POC
mTOR
  Avg POC: 110 POC
ERK1
  Avg POC: 110 POC
CK1gamma2
  Avg POC: 124.5 POC
IRR
  Avg POC: 102.5 POC
EGFR
  Avg POC: 106 POC
Ret
  Avg POC: 115 POC
JNK2alpha2
  Avg POC: 126.5 POC
CDK5/p35
  Avg POC: 123.5 POC
DMPK
  Avg POC: 110.5 POC
GRK7
  Avg POC: 97 POC
DYRK2
  Avg POC: 99 POC
Lyn
  Avg POC: 112 POC
EphB1
  Avg POC: 122 POC
